Legend:
HOSE cells [1] = assay: MTT viability assay, HOSE cells; type: cell-based, human; conditions: 24 h; for IC50: Homo sapiens, CalcuSyn; for concentration up to which viability was unchanged: cytotoxicity tests (MTT and LDH release)
Protocol: Cell viability was assessed with the MTT test and with lactate dehydrogenase (LDH) release assay. As per the MTT method, normal and cancer cells were seeded into 96-well plates at high density and allowed to attach overnight. Then they were incubated in a medium containing 1.25 mg/mL of the MTT salt [3-(4,5-dimethylthiazol-2-yl)-2,5-diphenyltetrazolium bromide] for 24 h at 37°C. The generated formazan was solubilized with 20% sodium dodecyl sulphate and 50% N,N-dimethylformamide. Absorbance of the converted dye was recorded at 595 nm with a reference wavelength of 690 nm.
(§1) In order to examine the effect of 3,3′,4,4′-THS on the viability of ovarian cancer cells and to compare its activity with RVT, subconfluent cultures of A2780, OVCAR-3, and SKOV-3 cells were subjected to a wide range of stilbene concentrations (0–500 μM) for 24 h; then MTT and LDH release assays were performed.

OVCAR-3 = assay: LDH release assay, OVCAR-3; type: cell-based; conditions: Homo sapiens, 24 h; for IC50: CalcuSyn
Protocol: As per LDH release, the measurements were performed using the commercially available Pierce LDH Cytotoxicity Assay Kit (Pierce Biotechnology, Rockford, IL, USA). In this assay, cells with damaged plasma membranes release LDH into the culture environment; then the enzyme catalyses the conversion of lactate to pyruvate, which is accompanied by a reduction of NAD^+ to NADH. Afterwards, diaphorase uses NADH to reduce a tetrazolium salt to a formazan whose level is proportional to LDH activity. The absorbance emitted by the formazan was monitored at 490 nm with a reference wavelength of 680 nm.
as §1

HPMCs = assay: LDH release assay, HPMCs; type: cell-based, human; conditions: Homo sapiens, 24 h, CalcuSyn
A2780 cells [2] = assay: ROS production (H2DCFDA), A2780; type: cell-based, human; conditions: 24 h, 10, 50, 100 μM tested
Protocol: (§2) ROS production was assessed in cells probed with a fluorescent dye, 2′,7′-dichlorodihydrofluorescein diacetate (H2DCFDA; 5 μM) (Molecular Probes, Eugene, USA) for 45 min at 37°C. Fluorescence intensity in cell lysates was monitored in a Victor2 spectrofluorometer with excitation at 485 nm and emission at 535 nm.

OVCAR-3 cells [3] = assay: ROS production (H2DCFDA), OVCAR-3; type: cell-based, human; conditions: 24 h, 10, 50, 100 μM tested
Protocol: as §2

[4] = tested on: superoxide dismutase (SOD); assay: SOD activity in cell lysates, OVCAR-3; type: cell-based, human; conditions: 24 h, 10, 50, 100 μM tested
Protocol: (§3) Total activity of superoxide dismutase (SOD) was measured in cell lysates with a commercially available kit (R&D Systems Europe, Abingdon, UK), while the activity of catalase (CAT) was estimated by using the OxiSelect Catalase Activity Assay Kit (Cell Biolabs Inc., San Diego, CA, USA). Both assays were performed according to the manufacturer's instructions.

[5] = tested on: superoxide dismutase (SOD); assay: SOD activity in cell lysates, HPMCs; type: cell-based, human; conditions: 24 h, percentage of control cells
Protocol: as §3

catalase (CAT) [6] = assay: CAT activity, OVCAR-3; type: cell-based, human; conditions: 24 h, 10, 50, 100 μM tested
Protocol: as §3

catalase (CAT) [7] = assay: CAT activity, SKOV-3; type: cell-based, human; conditions: 24 h, 10, 50, 100 μM tested
Protocol: as §3

catalase (CAT) [8] = assay: CAT activity, HOSE cells; type: cell-based, human; conditions: 24 h, percentage of control cells
Protocol: as §3

HOSE cells [9] = assay: Apoptosis (Hoechst 33258), HOSE cells; type: cell-based, human; conditions: 24 h, percentage of control cells
Protocol: (§4) Identification of apoptosis was based on the presence of DNA condensation in cells stained with a fluorescent dye, Hoechst 33258 (Molecular Probes, Eugene, OR). Cells were grown on Lab-Tek Chamber Slides (Nunc, Roskilde, Denmark), fixed with 4% formaldehyde for 10 min and washed twice with PBS. Then the cells were incubated with Hoechst 33258 (0.1 μg/mL) for 5 min in the dark. After washing with PBS, stained nuclei were observed and counted under a Zeiss Axio Observer D1 fluorescence microscope (Carl Zeiss, Jena, Germany). The activity of caspases 3, 8, and 9 was quantified in the cell lysates using specific colorimetric kits (Abcam, Cambridge, UK) according to the manufacturer's instructions.

A2780 cells [10] = assay: Cell proliferation (CFDA SE), A2780; type: cell-based, human; conditions: low-density cultures, 24 h, 10, 50, 100 μM tested
Protocol: Cell proliferative potential was determined using Cell Proliferation Kit I (PromoKine, Heidelberg, Germany) according to the manufacturer's instructions. In brief, cells were probed for 15 min with 5-(and 6)-carboxyfluorescein diacetate, a succinimidyl ester (CFDA SE; 2 μM) which diffuses into cells, covalently binds to proteins, and becomes fluorescent upon its hydrolysis by intracellular esterases. The fluorescence emitted by the cells (the dye is inherited by the daughter cells through successive divisions) was recorded using a Victor2 spectrofluorometer (Perkin-Elmer, Turku, Finland) with excitation at 435 nm and emission at 535 nm.

A2780 cells [11] = assay: SA-β-Gal activity (senescence), A2780; type: cell-based, human; conditions: 24 h, 10, 50, 100 μM tested
Protocol: (§5) The activity of SA-β-Gal in the cell extracts was quantified by measuring the rate of conversion of 4-methylumbelliferyl-β-D-galactopyranoside to 4-methylumbelliferone, as described in [19]. In order to visualize expression of the enzyme in the cancer cell cytoplasm, cytochemical staining for SA-β-Gal was performed according to Dimri et al..

OVCAR-3 cells [12] = assay: SA-β-Gal activity (senescence), OVCAR-3; type: cell-based, human; conditions: 24 h, 10, 50, 100 μM tested
Protocol: as §5

SKOV-3 cells = assay: SA-β-Gal activity (senescence), SKOV-3; type: cell-based, human; conditions: 24 h, 10, 50, 100 μM tested
Protocol: as §5

p38 MAPK [13] = assay: p38 MAPK activation (FACE ELISA), A2780; type: cell-based, human; conditions: 24 h, 10, 50, 100 μM tested
Protocol: (§6) Activation of p38 MAPK was examined using the Fast Activated Cell-Based ELISA (FACE) p38 kit (Active Motif) according to the manufacturer's instructions. In brief, cells were fixed with 4% formaldehyde and incubated with a primary antibody that recognizes either phosphorylated p38 or total p38 overnight at 4°C. Then the cells were washed and incubated with a secondary HRP-conjugated antibody for 1 h at room temperature. The color reaction that developed was read using a spectrofluorometer at 450 nm wavelength.
(§7) The results were expressed as a ratio of phosphorylated to total p38 activity.

p38 MAPK [14] = assay: p38 MAPK activation (FACE ELISA), SKOV-3; type: cell-based, human; conditions: 24 h, 10, 50, 100 μM tested
Protocol: as §6, §7

p38 MAPK [15] = assay: p38 MAPK activation (FACE ELISA), HOSE cells; type: cell-based, human; conditions: 24 h, percentage of control cells
Protocol: as §6, §7

caspase-8 = assay: Caspase-8 activity in ovarian cancer cell lysates; type: cell-based, human; conditions: ovarian cancer cells (A2780, OVCAR-3, SKOV-3); 24 h
Protocol: as §4

Row | IC50 (OVCAR-3) [µM] | IC50 (HPMCs) [µM] | Structure (SMILES) | IC50 (HOSE cells [1]) [µM] | concentration up to which viability was unchanged (HOSE cells [1]) [µM] | generation of ROS, effect in words (A2780 cells [2]) | generation of ROS, effect in words (OVCAR-3 cells [3]) | SOD activity, effect in words [4] | SOD ([5]; 10 μM) | SOD ([5]; 50 μM) | SOD ([5]; 100 μM) | CAT activity, effect in words (catalase (CAT) [6]) | CAT activity, effect in words (catalase (CAT) [7]) | CAT (catalase (CAT) [8]; 10 μM) | CAT (catalase (CAT) [8]; 50 μM) | CAT (catalase (CAT) [8]; 100 μM) | Apoptosis (HOSE cells [9]; 10 μM) [%] | Apoptosis (HOSE cells [9]; 50 μM) [%] | Apoptosis (HOSE cells [9]; 100 μM) [%] | proliferation, effect in words (A2780 cells [10]) | SA-β-Gal activity (senescence), effect in words (A2780 cells [11]) | also measured
1 | 85 | 498 | Oc1ccc(/C=C/c2ccc(O)c(O)c2)cc1O [3,3′,4,4′-THS, 3,3′,4,4′-tetrahydroxy-trans-stilbene] | 502 | ≤ 400 | markedly upregulated the generation of ROS | remarkably stronger | increased SOD at 10 μM and decreased the activity of the enzyme at 50 and 100 μM | 122 ± 4^∗# % | 141 ± 3^∗# % | 136 ± 4^∗# % | upregulated it in the OVCAR-3 cells at 10 μM, reduced it at 50 and 100 μM | downregulated it in the SKOV-3 cells at 50 and 100 μM | 132 ± 1^∗# % | 163 ± 4^∗# % | 162 ± 1^∗# % | 101 ± 1 | 100 ± 2 | 102 ± 2 | evident at as low a concentration as 10 μM | increased SA-β-Gal at each dose, reaching the highest activity at as low a dose as 10 μM | viability at 10 µM (OVCAR-3; 10 μM, percentage of control cells): 62 ± 12%; viability at 50 µM (OVCAR-3; 50 μM, percentage of control cells): 53 ± 3%; viability at 100 µM (OVCAR-3; 100 μM, percentage of control cells): 46 ± 3%; SA-β-Gal activity (senescence), effect in words (OVCAR-3 cells [12]): significantly greater than those of RVT at each concentration; SA-β-Gal activity (senescence), effect in words (SKOV-3 cells): significantly greater than those of RVT at each concentration; p38 MAPK activity (phosphorylated/total), effect in words (p38 MAPK [13]): elicited its stimulatory activity at 50 and 100 μM; p38 MAPK activity (phosphorylated/total), effect in words (p38 MAPK [14]): exerted upregulatory activity at 50 and 100 μM; p38 MAPK (p38 MAPK [15]; 10 μM): 106 ± 5%; p38 MAPK (p38 MAPK [15]; 50 μM): 104 ± 4%; p38 MAPK (p38 MAPK [15]; 100 μM): 100 ± 3%; caspase-8 activation, effect in words (caspase-8): lack of activation of caspase-8
2 | 525 | 495 | Oc1ccc(/C=C/c2cc(O)cc(O)c2)cc1 [RVT, 3,4′,5-trihydroxy-trans-stilbene, reference compound] | 485 | ≤ 400 | (at 50 and 100 μM) inhibited the production of ROS | stimulated the release of ROS | upregulated activity of the enzyme | 110 ± 2^∗ % | 112 ± 3^∗ % | 113 ± 2^∗ % | stimulated the enzyme at 10 μM in the OVCAR-3 cells, at 50 μM in the A2780, OVCAR-3, and SKOV-3 cells, and at 100 μM in the OVCAR-3 and SKOV-3 cells | stimulated the enzyme at 10 μM in the OVCAR-3 cells, at 50 μM in the A2780, OVCAR-3, and SKOV-3 cells, and at 100 μM in the OVCAR-3 and SKOV-3 cells | 121 ± 6^∗ % | 119 ± 4^∗ % | 121 ± 6^∗ % | 99 ± 2 | 101 ± 2 | 102 ± 3 | effectively reduced the expandability | did not change | SA-β-Gal activity (senescence), effect in words (OVCAR-3 cells [12]): cellular senescence was elicited; SA-β-Gal activity (senescence), effect in words (SKOV-3 cells): cellular senescence was elicited; p38 MAPK activity (phosphorylated/total), effect in words (p38 MAPK [13]): increased the activity of p38 MAPK at 100 μM; p38 MAPK activity (phosphorylated/total), effect in words (p38 MAPK [14]): failed to activate p38 MAPK; p38 MAPK (p38 MAPK [15]; 10 μM): 103 ± 5%; p38 MAPK (p38 MAPK [15]; 50 μM): 107 ± 10%; p38 MAPK (p38 MAPK [15]; 100 μM): 108 ± 11%; caspase-8 activation, effect in words (caspase-8): no effect

Source: PMC4502315, “High Potency of a Novel Resveratrol Derivative, 3,3′,4,4′-Tetrahydroxy-trans-stilbene, against Ovarian Cancer Is Associated with an Oxidative Stress-Mediated Imbalance between DNA Damage Accumulation and Repair” (Oxidative Medicine and Cellular Longevity, 2015)
